Data published in US10144746B2 (GLOBAL BLOOD THERAPEUTICS, INC., priority 2015, dated 2018).

Molecular target: Human plasma kallikrein (Homo sapiens (Human), UniProt P03952)
Test: In vitro plasma kallikrein inhibition assay (chromogenic substrate D-Pro-Phe-Arg-pNa, absorbance at 405 nm, IC50 determination)
Assay type: biochemical

Chain of Human plasma kallikrein (P03952 391-638): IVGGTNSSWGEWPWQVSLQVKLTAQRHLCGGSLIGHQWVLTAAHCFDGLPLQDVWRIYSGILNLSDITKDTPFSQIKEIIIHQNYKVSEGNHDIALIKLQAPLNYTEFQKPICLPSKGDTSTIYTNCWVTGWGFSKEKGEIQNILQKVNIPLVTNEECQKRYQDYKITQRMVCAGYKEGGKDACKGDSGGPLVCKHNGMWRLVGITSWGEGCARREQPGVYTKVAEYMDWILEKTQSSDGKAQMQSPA
Chain of Human plasma kallikrein (P03952 20-390 partner): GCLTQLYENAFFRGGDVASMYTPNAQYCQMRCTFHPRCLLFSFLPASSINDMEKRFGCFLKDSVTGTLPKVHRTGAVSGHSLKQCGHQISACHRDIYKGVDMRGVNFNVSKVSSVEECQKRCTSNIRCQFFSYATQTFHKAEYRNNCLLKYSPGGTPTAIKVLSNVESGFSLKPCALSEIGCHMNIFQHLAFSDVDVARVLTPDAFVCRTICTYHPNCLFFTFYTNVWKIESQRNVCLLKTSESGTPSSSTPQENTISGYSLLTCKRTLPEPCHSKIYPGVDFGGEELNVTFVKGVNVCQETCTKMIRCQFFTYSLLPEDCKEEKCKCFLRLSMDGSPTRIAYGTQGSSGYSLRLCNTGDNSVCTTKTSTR

(±)-N-[(6-amino-2,4- dimethylpyridin-3-yl)-methyl]- 12-(2,4-difluorophenyl)-15- methyl-15-azatetracyclo [6.6.1.0^2,^7.0^9,1^4]pentadeca- 2,4,6,9,11,13- hexaene-4-carboxamide and (±)-N-[(6-amino-2,4- dimethylpyridin-3-yl)methyl]- 11-(2,4-difluorophenyl)-15- methyl-15-azatetra-cyclo [6.6.1.0^2,^7.0^9,1^4]pentadeca- 2,4,6,9,11,13-hexaene-4- carboxamide [Example 115]
KLKB1 pIC50: 4

(±)-N-[(6-amino-2,4- dimethylpyridin-3-yl)methyl]- 12-(4-fluorophenyl)-1,8- dimethyl-15- oxatetracyclo[6.6.1.0^2,^7.0^9,1^4] pentadeca-2,4,6,9,11,13- hexaene-4-carboxamide and (±)-N-[(6-amino-2,4- dimethylpyridin-3-yl)methyl]- 11-(4-fluorophenyl)-1,8- dimethyl-15-oxatetracyclo [6.6.1.0^2,^7.0^9,1^4]pentadeca- 2,4,6,9,11,13-hexaene-4- carboxamide [Example 339]
KLKB1 pIC50: 4

(±)-N-[(6-amino-2,4- dimethylpyridin-3-yl)methyl]- 12-(phenylsulfanyl)-15- oxatetracyclo[6.6.1.0^2,^7.0^9,1^4] pentadeca- 2,4,6,9,11,13-hexaene-4- carboxamide (±)-N-[(6-amino-2,4- dimethylpyridin-3-yl)methyl]-11- (phenylsulfanyl)-15- oxatetracydo[6.6.1.0^2,^7.0^9,1^4] pentadeca-2,4,6,9,11,13- hexaene-4-carboxamide [Example 164]
KLKB1 pIC50: 6.86

(±)-N-[(6-amino-2,4-dimethyl- pyridin-3-yl)methyl]-12-(2,4- difluorophenyl)-11-ethenyl-15- oxatetracyclo[6.6.1.0^2,^7.0^9,1^4] pentadeca-2,4,6,9,11,13- hexaene-4-carboxamide and (±)-N-[(6-amino-2,4- dimethylpyridin-3-yl)methyl]- 11-(2,4-difluorophenyl)-12- ethenyl-15-oxatetraoyclo [6.6.1.0^2,^7.0^9,1^4]pentadeca- 2,4,6,9,11,13-hexaene-4- carboxamide [Example 322]
KLKB1 pIC50: 8.57

(±)-N-[(6-amino-2,4-dimethyl- pyridin-3-yl)methyl]-12-(2,4- difluorophenyl)-11-methyl-15- oxatetracyclo[6.6.1.0^2,^7.0^9,1^4] pentadeca-2,4,6,9(14),10,12- hexaene-4-carboxamide and (±)-N-[(6-amino-2,4- dimethylpyridin-3-yl)methyl]-11- (2,4-difluorophenyl)-12- methyl-15-oxatetracyclo [6.6.1.0^2,^7.0^9,1^4]pentadeca- 2,4,6,9(14),10,12-hexaene-4- carboxamide [Example 310]
KLKB1 pIC50: 7.7

(±)-N-[(6-amino-4-ethoxy- 2-methylpyridin-3-yl)methyl]-12- (2,4-difluorophenyl)-16-oxo-15- azatetracyclo[6.6.1.0^2,^7.0^9,1^4] hexadeca-2,4,6,9,11,13- hexaene-4-carboxamide and (±)-N-[(6-amino-4-ethoxy-2- methylpyridin-3-yl)methyl]- 11-(2,4-difluorophenyl)-16-oxo- 15-azatetracyclo[6.6.1.0^2,^7.0^9,1^4] hexadeca-2,4,6,9,11,13- hexaene-4-carboxamide [Example 163]
KLKB1 pIC50: 6.11
